Experimental data as given in patent US20250277001A1, “PEPTIDE DERIVATIVES AND RELATED USES AS OREXIN AGONISTS” (CENTESSA PHARMACEUTICALS (UK) LIMITED, priority 2022, published 2025).
Read-outs that look alike come from different tables or passages of the source. Where a SMILES comes first, the peptide text is derived from it. [ ]: non-standard residue; d: D form. The star is where a group is joined. Malonyl(2,2-Me2,histaminyl) = CC(C)(C(=O)NCCc1cnc[nH]1)C(=O)*; Gly(NCH2CH2Ph) = O=C(O)CNCCc1ccccc1; Hyp = O=C(O)[C@@H]1C[C@@H](O)CN1; hArg = N=C(N)NCCCC[C@H](N)C(=O)O; NMeN = CN[C@@H](CC(N)=O)C(=O)O; Aoc(2) = CCCCCC[C@H](N)C(=O)O; Phg = N[C@H](C(=O)O)c1ccccc1; Nle = CCCC[C@H](N)C(=O)O

What was measured:
[1] = target: T1, human orexin type 2 receptor (hOX2R) (Homo sapiens, UniProt O43614); assay: Measurement of orexin type 2 receptor agonist activity (CHO cells, FLIPR TETRA intracellular Ca2+); assay type: cell-based
T1 construct: expressed in transfected cells
T1 sequence (O43614 1-444): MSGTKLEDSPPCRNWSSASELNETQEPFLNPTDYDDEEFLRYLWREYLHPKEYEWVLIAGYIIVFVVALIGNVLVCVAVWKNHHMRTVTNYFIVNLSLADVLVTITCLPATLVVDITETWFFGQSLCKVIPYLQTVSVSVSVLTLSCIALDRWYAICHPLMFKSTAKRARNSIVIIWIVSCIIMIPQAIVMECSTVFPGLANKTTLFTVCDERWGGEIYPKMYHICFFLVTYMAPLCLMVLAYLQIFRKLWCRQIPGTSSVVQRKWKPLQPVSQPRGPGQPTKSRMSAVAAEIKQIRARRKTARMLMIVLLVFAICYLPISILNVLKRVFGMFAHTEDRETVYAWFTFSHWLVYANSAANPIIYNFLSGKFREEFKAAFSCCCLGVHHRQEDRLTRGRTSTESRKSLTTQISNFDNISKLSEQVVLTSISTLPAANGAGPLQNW
Excerpt: (§1) In some embodiments, the assay uses cells stably expressing either human orexin type 2 or human orexin type 1 receptor. In some embodiments, the cells are obtained by inserting the Orexin receptor cDNA into pcDNA3.1(+) plasmid vector, identifying clones by G418 drug resistance selection, and/or growing a single clone for OX2R-CHO and OX1R-CHO in bulk. In some embodiments, the assay is detected using Fluorescent Imaging Plate Reader TETRA (FLIPR TETRA: manufactured by Molecular Devices). In some embodiments, the agonist activity of the test peptide is calculated assuming that the fluorescence value of the well containing only the dilution buffer is 0% and the fluorescence value of the well containing 10 nM human orexin A (Tocris) buffer is 100%.
(§2) Stable cell line generation. Obtainment of cells stably expressing either human orexin type 2 or human orexin type 1 receptor: to obtain a stable cell line the Orexin receptor cDNA was inserted into pcDNA3.1(+) plasmid vector and clones identified by G418 drug resistance selection. […] A single clone for OX2R-CHO and OX1R-CHO were grown in bulk and frozen to generate a cell bank for routine screening.
(§3) Measurement of orexin type 2 receptor agonist activity. Chinese hamster ovary (CHO) cells expressing human orexin type 2 receptor (hOX2R) seeded in each well of 384 well black clear bottom plates (BD Flacon) at 10,000 cells per well and cultured for 24 h in an Ham's F12 (Gibco) medium containing 10% fetal calf serum (Sigma Aldrich) under the conditions of 37° C., 5% CO2. After removal of the medium, 50 μL of assay buffer 1 (0.1% bovine serum albumin (Sigma Aldrich), 20 mM HEPES (Molecular Dimensions), […] probenecid (Sigma Aldrich), 1× Calcium 5 dye (Molecular Devices) in Hank's balanced salt solution (Invitrogen)) was added, and the cells were incubated for 60 min under the conditions of 37° C., 5% CO2. A test peptide was dissolved in dimethyl sulfoxide (Sigma Aldrich) to 1 mM, and then diluted with assay buffer 2 (20 mM HEPES, Hank's balanced salt solution, 0.1% bovine serum albumin). For the reaction, a test peptide solution (10 μl) was added using Fluorescent Imaging Plate Reader TETRA (FLIPR TETRA: manufactured by Molecular Devices), a fluorescence value (excitation wavelength 488 nm, measurement wavelength 570 nm) of each well was measured every one second for 2 min, and the agonist activity was determined using the area of the fluorescence value as an indicator of intracellular Ca^2+ concentration. The agonist activity of the test peptide was calculated assuming that the fluorescence value of the well added with only the dilution buffer was 0% and the fluorescence value of the well added with 10 nM human orexin A (Tocris) buffer was 100%. As used herein, Emax indicates the value at 1 μM concentration when orexin A is converted to a full agonist (maximum value of agonist activity: 100%).

[2] = target: T2, human orexin type 1 receptor (hOX1R) (Homo sapiens, UniProt O43613); assay: Measurement of orexin type 1 receptor agonist activity (CHO cells, FLIPR TETRA intracellular Ca2+); assay type: cell-based
T2 construct: expressed in transfected cells
T2 sequence (O43613 1-425): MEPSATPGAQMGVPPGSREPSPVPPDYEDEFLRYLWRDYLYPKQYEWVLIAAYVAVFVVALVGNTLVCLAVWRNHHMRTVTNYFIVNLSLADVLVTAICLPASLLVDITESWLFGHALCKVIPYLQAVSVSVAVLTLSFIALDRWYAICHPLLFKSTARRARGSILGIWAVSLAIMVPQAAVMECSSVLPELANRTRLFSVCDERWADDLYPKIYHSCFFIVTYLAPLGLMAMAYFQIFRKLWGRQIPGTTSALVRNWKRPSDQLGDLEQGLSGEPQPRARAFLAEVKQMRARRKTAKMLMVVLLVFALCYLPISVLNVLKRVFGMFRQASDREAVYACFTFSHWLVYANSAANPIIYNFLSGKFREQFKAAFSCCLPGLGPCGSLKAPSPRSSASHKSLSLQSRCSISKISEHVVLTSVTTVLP
Excerpt: as §1, §2
as §3, with “type 1” for “type 2”, “receptor (hOX1R) were” for “receptor (hOX2R)”

[3] = 13 amino acid sequences, Example 4, read-out: OX2 pEC50 (converted)
[4] = 13 amino acid sequences, Example 4, read-out: OX1 pEC50 (converted)
[5] = CHO cells expressing hOX2R, Ca2+ fluorescence, read-out: hOX2 pEC50 (converted)
[6] = CHO cells expressing hOX1R, Ca2+ fluorescence, read-out: hOX1 pEC50 (converted)

Row | Compound | EC50 [1, 3] [nM] | EC50 [2, 4] [nM] | EC50 [1, 5] [nM] | EC50 [2, 6] [nM] | further results
1 | CCCC[C@H](NC(=O)[C@@H](NC(=O)[C@H](CC(C)C)NC(=O)[C@@H](NC(=O)CNC(=O)[C@@H](NC(=O)[C@H](C)NC(=O)[C@H](Cc1c[nH]cn1)NC(=O)[C@H](CC(N)=O)NC(=O)CNC(=O)[C@H](CO)NC(=O)[C@H](CCCNC(=N)N)NC(=O)[C@@H](N)Cc1c[nH]c2ccccc12)c1ccccc1)[C@@H](C)CC)[C@@H](C)O)C(N)=O [SEQ ID NO:8, TRP-ARG-SER-GLY-ASN-HIS-ALA-Phg-GLY-ILE-LEU-THR-NLE-NH2] (H-WRSGNHA[Phg]GILT[Nle]-NH2) | > 1.58 | > 316 | – | – | –
2 | CCCC[C@H](NC(=O)[C@@H](NC(=O)[C@H](CC(C)C)NC(=O)[C@@H](NC(=O)CNC(=O)[C@H](C)NC(=O)[C@H](C)NC(=O)[C@H](Cc1c[nH]cn1)NC(=O)[C@H](CC(N)=O)NC(=O)CNC(=O)[C@H](CO)NC(=O)[C@H](C)NC(=O)[C@H](Cc1c[nH]c2ccccc12)NC(=O)C(C)(C)C(=O)NCCc1cnc[nH]1)[C@@H](C)CC)[C@@H](C)O)C(N)=O [SEQ ID NO:7, CAP-TRP-ALA-SER-GLY-ASN-HIS-ALA-ALA-GLY-ILE-LEU-THR-NLE-NH2] ({Malonyl(2,2-Me2,histaminyl)}-WASGNHAAGILT[Nle]-NH2) | > 1.58 | > 316 | – | – | –
3 | CCCCCC[C@H](NC(=O)[C@@H](NC(=O)[C@H](CC(C)C)NC(=O)[C@@H](NC(=O)CNC(=O)[C@@H](NC(=O)[C@H](C)NC(=O)[C@@H]1C[C@@H](O)CN1C(=O)[C@H](CC(N)=O)N(C)C(=O)CN(CCc1ccccc1)C(=O)[C@H](CCCNC(=N)N)NC(=O)[C@@H]1CCCN1C(=O)[C@H](CCCCNC(=N)N)NC(=O)[C@@H](CCC(N)=O)NC(=O)C(C)(C)C(=O)NCCc1cnc[nH]1)c1ccccc1)[C@@H](C)CC)[C@@H](C)O)C(N)=O [compound 4] ({Malonyl(2,2-Me2,histaminyl)}-[dQ][hArg]PR[Gly(NCH2CH2Ph)][NMeN][Hyp]A[Phg]GILT[Aoc(2)]-NH2) | – | – | – | – | EC50 [1]: < 0.1 nM; EC50 [2]: > 10 nM

Now from value to compound, other results behind:

Row | EC50 [1, 3] [nM] | EC50 [2, 4] [nM] | EC50 [1, 5] [nM] | EC50 [2, 6] [nM] | Compound | further results
4 | – | – | < 0.1 | > 10 | CCCC[C@H](NC(=O)[C@@H](NC(=O)[C@H](CC(C)C)NC(=O)[C@@H](NC(=O)CNC(=O)[C@H](C)NC(=O)[C@H](C)NC(=O)[C@H](Cc1c[nH]cn1)NC(=O)[C@H](CC(N)=O)NC(=O)CNC(=O)[C@H](CO)NC(=O)[C@@H](C)NC(=O)[C@@H](Cc1ccccc1)NC(=O)[C@H](CC(C)C)NC(=O)[C@@H](N)Cc1ccccc1)[C@@H](C)CC)[C@@H](C)O)C(N)=O [compound 13] (H-FL[dF][dA]SGNHAAGILT[Nle]-NH2) | –
5 | – | – | < 0.1 | > 10 | CCCC[C@H](NC(=O)[C@@H](NC(=O)[C@H](CC(C)C)NC(=O)[C@@H](NC(=O)CNC(=O)[C@@H](NC(=O)[C@H](C)NC(=O)[C@H](Cc1c[nH]cn1)NC(=O)[C@H](CC(N)=O)NC(=O)CNC(=O)[C@H](CO)NC(=O)[C@H](C)NC(=O)[C@H](Cc1c[nH]c2ccccc12)NC(=O)[C@@H](CC(C)C)NC(=O)[C@@H](N)CC(C)C)c1ccccc1)[C@@H](C)CC)[C@@H](C)O)C(N)=O [compound 11] (H-L[dL]WASGNHA[Phg]GILT[Nle]-NH2) | –
6 | – | – | < 0.1 | > 10 | CCCCCC[C@H](NC(=O)[C@@H](NC(=O)[C@H](CC(C)C)NC(=O)[C@@H](NC(=O)CNC(=O)[C@@H](NC(=O)[C@H](C)NC(=O)[C@@H]1C[C@@H](O)CN1C(=O)[C@H](CC(N)=O)NC(=O)CN(CCc1ccccc1)C(=O)[C@H](CCCNC(=N)N)NC(=O)[C@@H]1C[C@@H](O)CN1C(=O)[C@@H]1C[C@@H](O)CN1C(=O)[C@@H]1C[C@@H](O)CN1)c1ccccc1)[C@@H](C)CC)[C@@H](C)O)C(N)=O [compound 9] (H-[Hyp][Hyp][Hyp]R[Gly(NCH2CH2Ph)]N[Hyp]A[Phg]GILT[Aoc(2)]-NH2) | –
